From paper PMC5869712 (Scientific Reports, 2018)
Read-outs that look alike come from different tables or passages of the source.

Legend:
JAK3 = molecular target: T1, JAK3 (Homo sapiens, UniProt P52333); assay: Cys-containing kinase family panel (EurofinsCerep); format: biochemical
T1 construct: ChemPartner (contract assay service)
T1 sequence (P52333 1-1124): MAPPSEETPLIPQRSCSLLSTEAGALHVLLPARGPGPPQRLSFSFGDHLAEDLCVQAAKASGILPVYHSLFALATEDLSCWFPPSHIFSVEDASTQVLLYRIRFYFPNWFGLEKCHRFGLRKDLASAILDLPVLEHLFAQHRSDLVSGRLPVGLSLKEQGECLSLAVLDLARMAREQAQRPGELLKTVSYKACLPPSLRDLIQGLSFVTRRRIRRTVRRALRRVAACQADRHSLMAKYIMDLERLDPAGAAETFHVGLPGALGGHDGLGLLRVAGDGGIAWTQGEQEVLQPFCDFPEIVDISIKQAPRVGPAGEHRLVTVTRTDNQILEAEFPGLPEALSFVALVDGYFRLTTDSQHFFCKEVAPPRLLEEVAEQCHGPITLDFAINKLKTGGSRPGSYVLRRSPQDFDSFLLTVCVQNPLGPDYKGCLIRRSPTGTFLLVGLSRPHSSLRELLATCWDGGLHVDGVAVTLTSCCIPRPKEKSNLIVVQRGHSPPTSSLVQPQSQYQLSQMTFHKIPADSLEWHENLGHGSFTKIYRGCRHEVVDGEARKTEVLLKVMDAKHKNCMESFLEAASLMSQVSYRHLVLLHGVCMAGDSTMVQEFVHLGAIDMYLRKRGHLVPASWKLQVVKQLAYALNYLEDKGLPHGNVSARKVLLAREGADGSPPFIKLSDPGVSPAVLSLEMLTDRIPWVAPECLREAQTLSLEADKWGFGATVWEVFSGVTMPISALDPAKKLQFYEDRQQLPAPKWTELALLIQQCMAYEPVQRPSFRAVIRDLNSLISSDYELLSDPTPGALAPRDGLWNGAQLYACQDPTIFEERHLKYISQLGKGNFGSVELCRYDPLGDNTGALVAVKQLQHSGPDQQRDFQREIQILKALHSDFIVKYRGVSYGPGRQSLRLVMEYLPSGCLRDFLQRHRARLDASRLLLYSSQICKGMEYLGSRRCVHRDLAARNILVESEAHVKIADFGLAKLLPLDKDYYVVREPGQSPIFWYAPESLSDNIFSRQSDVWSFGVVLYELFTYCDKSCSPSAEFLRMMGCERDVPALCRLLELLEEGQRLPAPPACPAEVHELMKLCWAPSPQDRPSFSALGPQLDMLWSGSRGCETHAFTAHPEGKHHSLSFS

[1] = test system: G-CSF-induced JAK/STAT3 phosphorylation in HEL cells (JAK1/JAK2); assay: STAT3 phosphorylation induced by G-CSF in HEL cells, Western blot; details: for IC50: Homo sapiens
MEK1 = molecular target: T2, MEK1 (Homo sapiens, UniProt Q02750); assay: Eurofins Kinase Profiler panel; format: biochemical; details: read-out: % inhibition (1μM), DMSO control=100%, lower=stronger
T2 construct: purchased Eurofins KinaseProfiler (Eurofins Pharma Discovery Services UK, Dundee); JAK3 also ChemPartner
T2 sequence (Q02750 whole entry): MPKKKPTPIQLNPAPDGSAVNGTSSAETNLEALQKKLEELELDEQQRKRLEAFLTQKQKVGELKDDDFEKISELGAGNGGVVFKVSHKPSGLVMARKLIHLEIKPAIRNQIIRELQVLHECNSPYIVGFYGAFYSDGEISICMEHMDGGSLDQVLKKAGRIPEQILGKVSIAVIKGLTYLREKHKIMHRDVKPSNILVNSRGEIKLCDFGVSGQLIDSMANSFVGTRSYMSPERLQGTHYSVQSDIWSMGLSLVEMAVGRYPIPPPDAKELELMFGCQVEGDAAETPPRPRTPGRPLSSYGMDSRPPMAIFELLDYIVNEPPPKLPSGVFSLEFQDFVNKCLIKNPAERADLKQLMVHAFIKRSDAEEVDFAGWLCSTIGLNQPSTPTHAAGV

ITK = molecular target: T3, ITK (Homo sapiens, UniProt Q08881); assay: Cys-containing kinase family panel (EurofinsCerep); format: biochemical
T3 construct: EurofinsCerep (contract assay service)
T3 sequence (Q08881 whole entry): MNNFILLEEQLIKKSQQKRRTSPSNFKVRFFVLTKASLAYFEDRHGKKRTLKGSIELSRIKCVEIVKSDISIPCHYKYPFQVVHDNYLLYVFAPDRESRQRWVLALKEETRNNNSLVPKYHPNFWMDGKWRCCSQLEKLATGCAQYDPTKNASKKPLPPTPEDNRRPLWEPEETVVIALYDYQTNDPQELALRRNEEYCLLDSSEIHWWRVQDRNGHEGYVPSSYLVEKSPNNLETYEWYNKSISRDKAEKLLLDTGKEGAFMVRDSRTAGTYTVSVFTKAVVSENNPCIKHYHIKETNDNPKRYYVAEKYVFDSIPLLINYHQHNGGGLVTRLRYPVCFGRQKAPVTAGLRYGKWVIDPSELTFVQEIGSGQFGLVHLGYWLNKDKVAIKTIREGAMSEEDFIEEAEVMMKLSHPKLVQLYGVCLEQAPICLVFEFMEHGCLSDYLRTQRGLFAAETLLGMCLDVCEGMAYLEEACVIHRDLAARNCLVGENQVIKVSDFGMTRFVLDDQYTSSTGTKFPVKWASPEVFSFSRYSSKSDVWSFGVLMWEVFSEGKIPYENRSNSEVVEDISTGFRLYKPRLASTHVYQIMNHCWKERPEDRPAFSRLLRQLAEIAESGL

[2] = test system: IFN-γ-induced JAK/STAT1 phosphorylation in U2OS cells (JAK1/JAK2); assay: STAT1 phosphorylation induced by IFN-γ in U2OS cells, Western blot; details: for IC50: Homo sapiens
MST1 = molecular target: T4, MST1 (Homo sapiens, UniProt Q13043); assay: Eurofins Kinase Profiler panel; format: biochemical; details: read-out: % inhibition (1μM), DMSO control=100%, lower=stronger
T4 construct: purchased Eurofins Pharma Discovery Services UK Limited (Kinase Profiler screening platform)
T4 sequence (Q13043 whole entry): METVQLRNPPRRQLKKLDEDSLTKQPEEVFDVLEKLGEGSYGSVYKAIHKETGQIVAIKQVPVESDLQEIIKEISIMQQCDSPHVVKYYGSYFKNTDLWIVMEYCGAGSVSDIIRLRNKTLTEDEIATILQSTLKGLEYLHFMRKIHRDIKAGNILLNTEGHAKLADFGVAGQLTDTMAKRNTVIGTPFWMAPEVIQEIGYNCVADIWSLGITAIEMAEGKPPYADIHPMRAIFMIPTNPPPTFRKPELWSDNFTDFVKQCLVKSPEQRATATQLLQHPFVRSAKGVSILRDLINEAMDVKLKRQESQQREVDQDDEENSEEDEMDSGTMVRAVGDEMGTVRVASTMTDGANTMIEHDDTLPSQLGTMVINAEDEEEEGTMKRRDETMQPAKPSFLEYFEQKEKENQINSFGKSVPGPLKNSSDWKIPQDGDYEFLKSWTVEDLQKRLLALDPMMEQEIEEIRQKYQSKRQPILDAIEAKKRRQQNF

MAPK1 = molecular target: T5, MAPK1 (Homo sapiens, UniProt P27361); assay: Eurofins Kinase Profiler panel; format: biochemical; details: read-out: % inhibition (1μM), DMSO control=100%, lower=stronger
T5 construct: purchased Eurofins KinaseProfiler (Eurofins Pharma Discovery Services UK, Dundee); JAK3 also ChemPartner
T5 sequence (P27361 whole entry): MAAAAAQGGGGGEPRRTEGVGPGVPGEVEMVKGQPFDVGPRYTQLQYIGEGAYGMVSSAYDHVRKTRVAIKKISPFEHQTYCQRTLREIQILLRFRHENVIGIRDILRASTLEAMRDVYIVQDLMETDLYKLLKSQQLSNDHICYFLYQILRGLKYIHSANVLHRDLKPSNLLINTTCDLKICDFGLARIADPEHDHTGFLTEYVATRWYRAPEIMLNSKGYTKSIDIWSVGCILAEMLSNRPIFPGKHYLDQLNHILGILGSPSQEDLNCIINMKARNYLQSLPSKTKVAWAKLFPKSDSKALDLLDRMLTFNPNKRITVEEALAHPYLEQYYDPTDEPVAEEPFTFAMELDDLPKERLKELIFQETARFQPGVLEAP

FGFR1 = molecular target: T6, FGFR1 (Homo sapiens, UniProt P11362); assay: Eurofins Kinase Profiler panel; format: biochemical; details: read-out: % inhibition (1μM), DMSO control=100%, lower=stronger
T6 construct: purchased Eurofins Pharma Discovery Services UK Limited (Kinase Profiler screening platform)

Abl = molecular target: T7, Abl (Homo sapiens, UniProt P00519); assay: Eurofins Kinase Profiler panel; format: biochemical; details: read-out: % inhibition (1μM), DMSO control=100%, lower=stronger
T7 construct: purchased Eurofins KinaseProfiler (Eurofins Pharma Discovery Services UK, Dundee); JAK3 also ChemPartner

[3] = test system: IL-3-induced JAK/STAT5 phosphorylation in TF-1 cells (JAK2); assay: STAT5 phosphorylation induced by IL-3 in TF-1 cells, Western blot
ERBB4 = molecular target: T8, ERBB4 (Homo sapiens, UniProt Q15303); assay: Cys-containing kinase family panel (EurofinsCerep); format: biochemical
T8 construct: EurofinsCerep (contract assay service)
T8 sequence (Q15303 26-1308): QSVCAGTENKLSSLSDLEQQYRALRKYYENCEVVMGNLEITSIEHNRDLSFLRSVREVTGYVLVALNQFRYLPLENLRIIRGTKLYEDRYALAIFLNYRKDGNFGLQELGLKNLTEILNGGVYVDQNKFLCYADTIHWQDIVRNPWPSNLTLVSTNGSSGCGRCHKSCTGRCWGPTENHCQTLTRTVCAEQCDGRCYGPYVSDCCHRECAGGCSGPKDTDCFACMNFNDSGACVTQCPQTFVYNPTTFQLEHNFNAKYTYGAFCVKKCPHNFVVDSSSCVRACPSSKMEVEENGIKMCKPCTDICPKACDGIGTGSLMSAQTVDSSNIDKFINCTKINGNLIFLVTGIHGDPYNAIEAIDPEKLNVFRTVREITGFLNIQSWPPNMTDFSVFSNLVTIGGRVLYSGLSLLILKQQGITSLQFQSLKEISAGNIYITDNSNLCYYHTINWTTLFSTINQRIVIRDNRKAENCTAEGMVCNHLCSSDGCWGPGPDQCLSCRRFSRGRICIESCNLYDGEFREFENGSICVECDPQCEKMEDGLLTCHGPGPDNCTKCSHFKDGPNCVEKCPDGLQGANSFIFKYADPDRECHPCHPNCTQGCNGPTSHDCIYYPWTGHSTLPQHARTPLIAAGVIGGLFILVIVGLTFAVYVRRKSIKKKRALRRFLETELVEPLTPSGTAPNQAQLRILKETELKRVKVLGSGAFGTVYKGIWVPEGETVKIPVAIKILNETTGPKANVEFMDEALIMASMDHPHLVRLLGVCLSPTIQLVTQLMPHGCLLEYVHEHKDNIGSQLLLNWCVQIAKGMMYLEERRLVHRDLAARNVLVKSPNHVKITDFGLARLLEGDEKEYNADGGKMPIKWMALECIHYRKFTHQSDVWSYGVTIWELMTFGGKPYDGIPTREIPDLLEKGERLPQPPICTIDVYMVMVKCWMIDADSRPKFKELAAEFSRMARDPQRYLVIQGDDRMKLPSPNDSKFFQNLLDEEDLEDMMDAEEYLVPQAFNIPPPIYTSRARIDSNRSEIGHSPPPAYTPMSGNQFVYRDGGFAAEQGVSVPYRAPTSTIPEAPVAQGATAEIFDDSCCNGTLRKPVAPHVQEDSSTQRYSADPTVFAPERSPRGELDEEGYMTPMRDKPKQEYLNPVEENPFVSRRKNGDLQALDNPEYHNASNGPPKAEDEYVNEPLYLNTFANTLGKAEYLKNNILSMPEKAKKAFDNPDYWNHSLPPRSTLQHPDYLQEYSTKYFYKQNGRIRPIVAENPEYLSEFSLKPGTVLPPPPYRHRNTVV

[4] = test system: cytokine gene transcription in joint tissue of CIA mice; assay: Cytokine gene expression in joints of CIA mice by RT-PCR; format: in vivo, mouse
KDR = molecular target: T9, KDR (Homo sapiens, UniProt P35968); assay: Eurofins Kinase Profiler panel; format: biochemical; details: read-out: % inhibition (1μM), DMSO control=100%, lower=stronger
T9 construct: purchased Eurofins KinaseProfiler (Eurofins Pharma Discovery Services UK, Dundee); JAK3 also ChemPartner
T9 sequence (P35968 20-1356): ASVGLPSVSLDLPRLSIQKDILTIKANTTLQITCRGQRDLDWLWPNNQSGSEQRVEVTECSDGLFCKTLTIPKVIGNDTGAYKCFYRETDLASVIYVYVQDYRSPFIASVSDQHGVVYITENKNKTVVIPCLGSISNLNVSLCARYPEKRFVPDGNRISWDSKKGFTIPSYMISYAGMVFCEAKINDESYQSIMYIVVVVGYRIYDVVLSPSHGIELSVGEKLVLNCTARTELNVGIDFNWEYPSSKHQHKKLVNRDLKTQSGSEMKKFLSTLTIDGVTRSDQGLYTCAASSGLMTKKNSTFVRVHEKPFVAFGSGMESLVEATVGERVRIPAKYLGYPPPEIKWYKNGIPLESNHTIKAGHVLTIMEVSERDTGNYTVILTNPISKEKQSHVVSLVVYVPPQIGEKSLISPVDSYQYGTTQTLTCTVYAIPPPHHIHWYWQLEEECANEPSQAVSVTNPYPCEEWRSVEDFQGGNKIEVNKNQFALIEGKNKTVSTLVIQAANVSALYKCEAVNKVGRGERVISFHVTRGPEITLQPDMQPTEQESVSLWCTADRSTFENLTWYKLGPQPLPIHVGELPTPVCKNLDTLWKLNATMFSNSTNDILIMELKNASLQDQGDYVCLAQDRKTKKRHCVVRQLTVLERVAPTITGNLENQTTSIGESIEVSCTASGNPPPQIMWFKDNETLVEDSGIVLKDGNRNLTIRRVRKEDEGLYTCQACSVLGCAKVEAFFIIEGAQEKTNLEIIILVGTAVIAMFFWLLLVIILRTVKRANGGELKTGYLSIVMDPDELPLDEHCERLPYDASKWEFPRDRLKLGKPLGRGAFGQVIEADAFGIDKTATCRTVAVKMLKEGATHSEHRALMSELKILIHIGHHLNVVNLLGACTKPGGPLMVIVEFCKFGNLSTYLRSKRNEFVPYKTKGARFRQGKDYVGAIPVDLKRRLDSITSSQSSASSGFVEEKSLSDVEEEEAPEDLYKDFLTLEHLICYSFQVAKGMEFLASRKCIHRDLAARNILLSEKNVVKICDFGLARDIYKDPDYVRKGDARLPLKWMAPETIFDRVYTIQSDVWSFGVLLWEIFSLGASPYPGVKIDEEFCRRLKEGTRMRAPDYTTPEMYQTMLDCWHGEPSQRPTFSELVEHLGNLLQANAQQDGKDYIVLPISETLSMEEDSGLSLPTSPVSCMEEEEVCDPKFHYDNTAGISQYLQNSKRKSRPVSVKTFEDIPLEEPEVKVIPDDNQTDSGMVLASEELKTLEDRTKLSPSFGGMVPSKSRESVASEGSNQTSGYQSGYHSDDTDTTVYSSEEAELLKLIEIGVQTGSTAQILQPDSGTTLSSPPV

[5] = Acute toxicity in SD rats, oral; details: Sprague Dawley, rat, in vivo, po
SD rats = assay: Acute toxicity in SD rats, oral; details: SD rats; oral 0.4 g/kg to 2.0 g/kg
CDK2 = molecular target: T10, CDK2 (Homo sapiens, UniProt P24941); assay: Eurofins Kinase Profiler panel; format: biochemical; details: read-out: % inhibition (1μM), DMSO control=100%, lower=stronger
T10 construct: purchased Eurofins KinaseProfiler (Eurofins Pharma Discovery Services UK, Dundee); JAK3 also ChemPartner

B-Raf = molecular target: T11, B-Raf (Homo sapiens, UniProt P15056); assay: Eurofins Kinase Profiler panel; format: biochemical; details: read-out: % inhibition (1μM), DMSO control=100%, lower=stronger
T11 construct: purchased Eurofins KinaseProfiler (Eurofins Pharma Discovery Services UK, Dundee); JAK3 also ChemPartner

[6] = test system: IL-6-induced STAT3 phosphorylation (JAK1); assay: IL-6-induced pSTAT3 in total lymphocytes in hPBMCs, flow cytometry; format: cell-based, human
[7] = test system: EPO-induced JAK/STAT5 phosphorylation in HEL cells (JAK2); assay: STAT5 phosphorylation induced by EPO in HEL cells, Western blot
IGF-1R = molecular target: T12, IGF-1R (Homo sapiens, UniProt P08069); assay: Eurofins Kinase Profiler panel; format: biochemical; details: read-out: % inhibition (1μM), DMSO control=100%, lower=stronger
T12 construct: purchased Eurofins KinaseProfiler (Eurofins Pharma Discovery Services UK, Dundee); JAK3 also ChemPartner

C=CC(=O)N[C@@H]1CCCN(c2ncnc3[nH]ccc23)C1 [RB1]
inhibition at 1 µM (JAK3): 99.1%
G-CSF-induced phosphorylation of STAT3 ([1]; HEL cells, RB1 at concentrations over 50 μM): not affected
Selectivity JAK1/JAK3 ([1]; HEL, G-CSF, pSTAT3): > 1000
Selectivity JAK2/JAK3 ([1]; HEL, G-CSF, pSTAT3): > 1000
IC50 ([1]; HEL, read-out: IC50 (nM) JAK1): > 50000 nM
IC50 ([1]; HEL, read-out: IC50 (nM) JAK2): > 50000 nM
activity at 1 µM (MEK1): 92%
inhibition at 1 µM (ITK): -5.9%
IC50 ([2]; U2OS, read-out: IC50 (nM) JAK1): > 50000 nM
IC50 ([2]; U2OS, read-out: IC50 (nM) JAK2): > 50000 nM
IFN-γ-induced phosphorylation of STAT1 ([2]; U2OS cells, RB1 at concentrations over 50 μM): not affected
Selectivity JAK1/JAK3 ([2]; U2OS, IFN-γ, pSTAT1): > 1000
Selectivity JAK2/JAK3 ([2]; U2OS, IFN-γ, pSTAT1): > 1000
activity at 1 µM (MST1): 83%
activity at 1 µM (MAPK1): 85%
activity at 1 µM (FGFR1): 80%
activity at 1 µM (Abl): 112%
IC50 ([3]; Homo sapiens): > 50 µM
Selectivity JAK2/JAK3 ([3]; IL-3, pSTAT5): > 1000
inhibition at 1 µM (ERBB4): -3.5%
IL-10 expression [4]: significantly increased its expression
gene transcription levels of IL-1, IL-2 and IL-6 [4]: dose-dependently reduced
TNF-α and IFN-γ gene transcription levels ([4]; p < 0.01): significantly reduced
activity at 1 µM (KDR): 96%
LD50 [5]: > 2000 mg/kg
adverse effects on body weight, behaviour or appetite (SD rats): no observable adverse effects
activity at 1 µM (CDK2): 93%
activity at 1 µM (B-Raf): 90%
IC50 ([6]; Homo sapiens, Lymphocyte, hPBMC total lymphocytes, trigger IL-6, readout pSTAT3, JAK1): > 40 µM
Selectivity JAK1/JAK3 ([6]; hPBMC, IL-6 pSTAT3 over IL-2 pSTAT5): >400 fold
Selectivity JAK2/JAK3 ([7]; EPO, pSTAT5): > 1000
IC50 ([7]; Homo sapiens): > 50 µM
activity at 1 µM (IGF-1R): 93%
